# According to patent US11020383B2, “Methods for the treatment of cancer metastasis” (THE BOARD OF REGENTS OF THE UNIVERSITY OF TEXAS SYSTEM, priority 2017, dated 2021):
# Entries after “also recorded” stand apart in the source; their conditions may differ.
# What was measured:
# [1] = PD/PK study in mice xenografted with RPMI 8226 cells; assay type: in vivo, SCID mice; settings: single 30 mg/kg i.v.
# Description: The study involved 11 female SCID mice, with 3 control mice injected with vehicle (5% ethanol, 5% cremophor in water with 5% dextrose [D5W]) and […] injected with B1. The presence of B1 was detected by mass spectrometry in the tumors of B1-injected mice 8 and 12 hours post-injection, at concentrations up to 30.5 ng/g.
# [2] = tested on: cultured breast cancer cells; settings: breast cancer cells poorly responsive to bortezomib; cited from earlier work
# proteasome = settings: cited from earlier work
# mTOR pathway = settings: cited from earlier work
# [3] = tested on: human C4-2 prostate cancer cells; assay: Liver micrometastasis by H&E histology in C4-2 tumor-bearing nude mice; assay type: in vivo
# Source text: FIG. 10: H&E stained histological liver slices of control nude mice with a tumor induced using human C4-2 prostate cancer cells. Suspected micrometastasis sites are marked with black rings. A scale bar represents 500 μm. Micrometastasis was detected with an average frequency in the control group (untreated) 3.75 per mice, whereas in the B1 treated group it was 1.33 per mice.
# (§1) Importantly, in the second, third and fourth mechanisms, the drug acts independently from the size of primary tumor. This was an unexpected effect.
# [4] = tested on: M1-polarized macrophages from U937 cells; assay: Live cell counts of U937-derived M1-type model macrophages; assay type: cell-based, Human; settings: 1 μM B1, n=4
# Description: (§2) FIGS. 17A-B: Model M2-polarized macrophages are sensitive to the treatment with B1, in contrast to model M1-polarized macrophages. (FIG. 17A) Human cultured monocytic U937 cells were in vitro differentiated into M0 macrophages and then polarized into M1-type and M2-type macrophages, in the presence of vehicle (DMSO; control) or in the presence of 1 μM B1. The inventors used established protocol to differentiate U937 cells into macrophages (M0) with PMA (phorbol myristate acetate) and then polarize them into model M1 and M2-like types with interferon γ and LPS (lipopolysaccharide) or interleukins IL-4 and IL-13, respectively. The identity of M1-type and M2-type model macrophages was confirmed by cell staining with specific markers: the fluorescent antibodies recognizing surface proteins CD80 (for M1) and CD163 (for M2). (FIG. 17B) Counts of live cells cultured in the presence or absence of B1 are presented.
# (§3) And fourth, the anti-M2 macrophages actions were confirmed in cell culture model.
# [5] = tested on: human prostate cancer androgen resistant C4-2 cells; assay: Growth of primary tumor in nude mice xenografted with C4-2 cells; assay type: in vivo
# Source text: In the vehicle-treated mouse, the tumor grew by size more than twice in the span of four weeks, whereas in the B1-treated mouse the tumor shrunk to about 50% of the size at the start of treatment (FIG. 2).
# As shown herein, B1 exerts anti-metastatic actions with multiple mechanisms. First, the drug attenuates the growth of the primary tumor. Large tumors shed large number of metastasis seeding circulating tumor cells into circulation, thus increasing the chance of successful colonization of metastatic sites.
# as §1
# M1 and M2 macrophages = assay: Enumeration of circulating M1 and M2 macrophages in blood of xenografted mice; assay type: in vivo, nude mice
# Description: (§4) CTCs and macrophages were isolated from the blood of two nude mice xenografted with human prostate cancer androgen resistant C4-2 cells and treated biweekly intratumorally with vehicle or B1 (30 mg/kg). In the vehicle-treated mouse, the tumor grew by size more than twice in the span of four weeks, whereas in the B1-treated mouse the tumor shrunk to about 50% of the size at the start of treatment (FIG. 2).
# However, the numbers of circulating macrophages were also much lower in the blood of the B1-treated mouse. […] Consistently, the ratios of pro-tumor and anti-tumor macrophages in control and B1-treated mouse were approximated as 2.5 and 0.5, respectively.
# Third, the drug boosts natural anti-cancer immune response. It promotes anti-metastatic profile of macrophages co-purifying with CTCs in the nude mice xenografted with human cultured androgen-independent prostate cancer cells C4-2, and treated with vehicle or with B1 (30 mg/kg). […] Data from one control and one treated mouse are presented in FIG. 5, with data from seven control and six treated mice presented below.
# [6] = tested on: M2-polarized macrophages from U937 cells; assay: Live cell counts of U937-derived M2-type model macrophages; assay type: cell-based, Human; settings: 1 μM B1, T test, n=4
# Description: as §2, §3
# [7] = tested on: circulating tumor cells (CTCs); assay: Enumeration of circulating tumor cells in blood of xenografted mice; assay type: in vivo, nude mice
# Description: as §4
# The anti-tumor actions of B1 in nude mice were confirmed by analysis of circulating tumor cells (CTCs). Enumeration of CTCs is used as a prognostic marker in cancer patients. The enumeration was extended to include not only canonical CTCs positive for epithelial marker EpCAM, but also EpCAM negative CTC-like cells positive for markers of epithelial-mesenchymal transition (EMT), indicative of increased aggressiveness of the cells (Chen et al., 2013).
# [8] = tested on: circulating tumor cells (CTCs); assay: Biophysical profiling of CTCs by atomic force microscopy (PF QNM AFM); assay type: in vivo, nude mice; settings: CTCs from blood of B1-treated vs control mice
# Source text: It was postulated that the differences in profiles of circulating macrophages, which may destroy CTCs or help them in seeding metastases, are indicative of the metastatic potential of CTCs. To determine the metastatic potential of CTCs isolated from the blood of human prostate cancer patients and mouse cancer models, biophysical profiling by atomic force microscopy (AFM) was employed. This method was used to confirm the decreased aggressiveness of CTCs isolated from the B1-treated mouse.
# In short, to determine the mechanical phenotype of cells Peak Force Quantitative Nanomechanical Atomic Force Microscopy (PF QNM AFM) imaging was employed. AFM is a type of stylus profilometry. In this particular AFM technique, a micro-sized probe (tip) interacts with a cell surface with strictly controlled force. At each point of contact, the tip position and the “force plot” presenting mechanical interactions of the tip with a cell surface are recorded. Images are created during raster scanning by the tip. The parameters extracted from the force plots are assembled into topographical (cell morphology) and mechanical maps. The mechanical parameters include elasticity (i.e., pressure needed to indent the cell in a reversible manner), deformation (i.e., the depth of maximal indentation enforced by the probe without breaking the cell membrane), and adhesion (i.e., force needed to lift the tip from the cell surface during the probe withdrawal).
# A single AFM scan also provides a shape of the cell to distinguish between epithelial-like and mesenchymal-like phenotypes, and roughness of the cell surface that correlates with activity of apoptotic and EMT pathways (Chen et al, 2013; Osmulski et al., 2014). The integrated inverted fluorescent microscope allows collecting correlative immunocytochemical data about the scanned cells (FIG. 7).
# The probe (tip on a cantilever) indents (vertical movement) and scans (lateral movement) the cell surface. After 10-15 min scan of a 1000-2000 μm^2 area, 5 maps of cell morphology, surface topography, elasticity, deformation, and adhesion (FIG. 6) are computed from the force plots (FIG. 7) created for each of the 4000-65,500 single tip-cell contact points with horizontal resolution of 100 nm, vertical resolution of 10 nm and forces as low as 100 pN. It is established that cancerous cell are much softer, deformable and more adhesive than their normal counterparts (Osmulski et al., 2014).
# Second, the drug decreases aggressiveness of CTCs. The decrease is apparent by comparison of mechanical phenotypes of CTCs isolated from mice xenografted with human cultured androgen-independent prostate cancer cells C4-2, and treated with vehicle or with B1 (30 mg/kg). The data are presented in FIGS. 11-16 and in Table 1 (FIG. 11 is an extended version of FIG. 8).
# [9] = tested on: human cultured androgen-independent prostate cancer cells C4-2; assay: Efficacy study in NOD-SCID mice xenografted with C4-2 cells; assay type: in vivo
# Description: FIG. 18. […] The efficacy study was performed with mice xenografted with human cultured androgen-independent prostate cancer cells C4-2. The study involved eleven NOD-SCID mice. […] tumor-growing mice were treated intra-tumorally (IT) with 30 mg/kg B1 twice a week for up to three weeks. The control group (four mice) received a B1 vehicle (dimethylsulfoxide; DMSO). Tumor sizes were measured twice a week.
# [10] = B1 maximum tolerated dose study; assay type: in vivo
# Description: A study to determine the maximum tolerated dose was performed on 30 female CB. 17 SCID mice divided into six groups, five animals each. B1 was administered intravenously (i.v.) once a day (q.d.; three groups) or biweekly (three groups), at concentrations of 3 mg/kg, 10 mg/kg or 30 mg/kg, dissolved in 5% ethanol, 5% cremophor in water with 5% dextrose [D5W]. Mice were treated for 28 days, weighted daily on days 1-5 and then on a twice weekly schedule until day 28. They were observed frequently for adverse effects of treatment. […] Thus, B1 is non-toxic for mice even at the highest tested dose, 30 mg/kg.
# [11] = B1 treated vs control mice (FIG. 16)
# [12] = mice with xenografted prostate tumors
# [13] = one B1-treated vs one vehicle mouse (FIG. 5)
# [14] = seven control and six treated nude mice, B1 30 mg/kg
compound,measurement,setting,value
"COc1cc(CCCOC(=O)C2CCCCN2C(=O)C(=O)C2CCCCC2)cc(OC)c1OC (stereo not drawn) [Compound B1, 3-(3,4,5-trimethoxyphenyl)propyl 1-(2-cyclohexyl-2-oxoacetyl) piperidine-2-carboxylate]",concentration of B1 in the tumors,"[1]; 8 and 12 hours post-injection, mass spectrometry",up to 30.5 ng/g
same,tissue localization,[1]; RPMI 8226 xenograft,localized to the xenografted tumor site
same,cytotoxic effects with bortezomib,[2],strong cytotoxic effects
same,26S assembling,proteasome,interferes with 26S assembling
same,affinity of core particle toward bortezomib,proteasome,increases affinity
same,concentration at which proteasome activities are influenced,proteasome,nanomolar concentrations
same,effect on mTOR pathway,mTOR pathway,not affecting
same,incidence of micrometastases in livers vs controls,[3]; B1-treated mice (FIG. 10),decreased incidence
same,average frequency of liver micrometastasis,[3]; B1 treated group (untreated control 3.75),1.33 per mice
same,counts of live M1 model macrophages vs control,[4],did not affect viability; also recorded: did not differ
same,tumor size relative to the size at the start of treatment,"[5]; one nude mouse, C4-2 xenograft, B1 30 mg/kg intratumorally biweekly, four weeks (FIG. 2)",about 50%
same,difference in tumor volume increase between control and B1-treated tumors,[5]; selected group of seven control and six B1-treated mice,no significant difference
same,ratio of pro-tumor (M2) and anti-tumor (M1) macrophages,"M1 and M2 macrophages; B1-treated mouse, blood (control mouse 2.5)",~0.5
same,formation of CTC-M2 (chaperoning) clusters,M1 and M2 macrophages; [11],limited formation
same,formation of M1-CTC (predatory) clusters,M1 and M2 macrophages; [11],enhanced formation
same,decrease of chaperone immune cells (M2 macrophages) vs vehicle,M1 and M2 macrophages; [12],about four-fold
same,decrease of the ratio of M2 macrophages to M1 macrophages vs vehicle-treated mouse,M1 and M2 macrophages; [12],five-fold
same,"M2 pro-tumor macrophages, control mouse relative to B1-treated mouse",M1 and M2 macrophages; [13],more than four-times
same,number of M1 predator (anti-tumor) macrophages vs control mouse,M1 and M2 macrophages; [13],very similar
same,numbers of circulating macrophages vs vehicle-treated mouse,"M1 and M2 macrophages; one B1-treated vs one vehicle mouse, 30 mg/kg intratumorally",much lower
same,number of anti-cancer M1-type macrophages vs control,M1 and M2 macrophages; [14],larger number
same,number of pro-cancer M2-type macrophages vs control,M1 and M2 macrophages; [14],generally lower number
same,counts of live M2-type model macrophages vs control,[6],significantly attenuating viability; also recorded: the difference was statistically significant
same,number of highly invasive post-EMT CTCs,[7]; [11],diminished
same,formation of CTCs clusters,"[7]; B1 treated vs control mice, heat map cluster analysis (FIG. 16)",diminished formation
same,decrease of abundance of cancer cells in the blood stream vs vehicle,[7]; [12],about five-fold
same,numbers of CTCs in blood vs vehicle-treated mouse,"[7]; one B1-treated vs one vehicle mouse, 30 mg/kg intratumorally, EpCAM or vimentin (FIG. 4)",significantly lower
same,CTC adhesion vs vehicle,"[8]; AFM (FIG. 8, FIG. 11)",less adhesive
same,CTC deformation vs vehicle,"[8]; AFM (FIG. 8, FIG. 11)",less deformable
same,"CTC stiffness (elasticity, Young modulus) vs vehicle","[8]; AFM (FIG. 8, FIG. 11)",harder; also recorded: stiffer
same,aggressiveness of CTCs,[8]; mechanical phenotype,low aggressiveness; also recorded: significantly lowered aggressiveness
same,changes in the weight of animals,[9]; 30 mg/kg B1 intra-tumorally twice a week,did not result in detectable changes
same,tumor growth vs control group,[9]; 30 mg/kg B1 intra-tumorally twice a week for up to three weeks (FIG. 18),Significant inhibition; also recorded: significantly attenuated
same,toxicity at the highest tested dose,"[10]; 30 mg/kg i.v., mice",non-toxic
same,adverse effects on behavior,"[10]; i.v. q.d. or biweekly, 3, 10 or 30 mg/kg, 28 days",no adverse effects
same,differences in body weight between the groups,"[10]; i.v. q.d. or biweekly, 3, 10 or 30 mg/kg, 28 days (FIG. 9)",No statistically significant differences
